Values after ≈ are worked out from the molar mass of the structure shown. Like-named read-outs stand apart in the source and are kept apart here.
Tests used:
[1] = test system: X. maltophilia ATCC 13637; assay: In vitro antibacterial evaluation, MIC by agar dilution, X. maltophilia ATCC 13637; type: cell-based; conditions: Stenotrophomonas maltophilia, ATCC13637
Method: (§1) The compounds of the invention were evaluated against several β-lactamresistant bacteria strains by determining the minimum inhibitory concentration (MIC, μg/ml) of each compound with respect to each strain. The MIC, the lowest concentration of antibiotic which inhibits growth of the test organism, was determined by the agar dilution method.
(§2) To determine the MIC for bacterial isolates, the test compound was incorporated in a series of two-fold dilutions into liquified Mueller-Hinton agar. Upon solidification, a number of different bacterial strains were spot inoculated with a replicating device onto the agar surface. […] The procedures used in these studies have been standardized by the National Committee for Clinical Laboratory Standards (NCCLS), as per the NCCLS publication entitled METHODS FOR DILUTION ANTIMICROBIAL SUSCEPTIBILITY TESTS (1991), which is incorporated herein by reference.
(§3) Aliquots of antimicrobial agents were prepared in phosphate buffered saline (PBS) at pH 7.2. Tween 20 or DMSO was used as a solubilizing vehicle as needed. Standard methods of vortexing, sonicating and gentle heat were used to facilitate solubilizing the test agent. Typically, the concentration of the stock solution was 10× that of the highest drug concentration tested. A 1.28 mg/mL stock solution was used with a subsequent highest working concentration of 128 μg/mL. Serial two-fold dilutions were done through ≤0.25 μg/mL. Each drug level was tested in duplicate. Two-fold drug dilutions were done in sterile 50 mL tubes with a final drug volume of 5 mL. Upon the addition of 45 mL of molten agar, a 10-fold dilution resulted. Two, 25 mL. plates were then poured into 15×150 mm square Petri plates with grids and allowed to harden.
(§4) A control plate with a reference drug, either cefotaxime, vancomycin or imipenem, was used as the positive growth control. Stock concentrations of reference antibiotics were prepared and frozen at -80° C. Upon preparation, the control plates were sealed and stored in the refrigerator for up to 1 week prior to use; however, imipenem control plates had to be prepared just prior to use. All test plates were used within 24 hours of preparation.
(§5) Satisfactory results were obtained where the inoculum contained about 10^4 colony forming units (cfu) ±0.5 logs. Starting with pure cultures of the test isolates on agar plates, a few isolated colonies were transferred to a tube of nutrient broth and allowed to grow 4-6 hours at 35°-36° C. to reach log-phase growth. Dropwise addition of the broth culture to PBS was done to match a 0.5 McFarland turbidity standard equal to 10^8 cfu/mL. This was further diluted ten-fold in PBS to reach a working inoculum concentration of 10^7 cfu/mL. When 1 μL of the working inoculum was applied to the agar surface a concentration of about 10^4 cfu per spot was obtained.
(§6) Disposable sterile 1 μL loops were used to inoculate test plates, with each isolate in a designated grid on the agar plate. An alternate method of inoculation involved the use of a replica plater, a device with 48 steel pins allowing the simultaneous inoculation of multiple isolates. After the spots had dried, the plates were incubated at 35°-36° C. for 16-20 hours. Endpoints were assessed as the minimum inhibitory concentration (MIC) of antimicrobial agent.

[2] = test system: S. aureus Col8A (Meth^S)(lac^-); assay: In vitro antibacterial evaluation, MIC by agar dilution, S. aureus Col8A; type: cell-based; conditions: Staphylococcus aureus
How it was run: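 Log-phase isolates were spot-inoculated at about 10^4 cfu onto Mueller-Hinton agar carrying duplicate two-fold compound levels, 128 μg/mL to ≤0.25 μg/mL, following NCCLS (1991). Plates were read after 16-20 h at 35°-36° C. The lowest growth-inhibiting concentration gave the MIC (μg/ml).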

[3] = test system: E. coli ATCC 25922; assay: In vitro antibacterial evaluation, MIC by agar dilution, E. coli ATCC 25922; type: cell-based; conditions: Escherichia coli, ATCC25922, read-out: MIC
How it was run: (§7)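 NCCLS agar dilution; Mueller-Hinton agar, 2-fold series 128 to ≤0.25 μg/mL, duplicates. Inoculum ~10^4 cfu/spot from 4-6 h log-phase broth culture. 35°-36° C, 16-20 h; MIC = lowest concentration with no growth.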

[4] = test system: E. faecium ATCC 35667; assay: In vitro antibacterial evaluation, MIC by agar dilution, E. faecium ATCC 35667; type: cell-based; conditions: Enterococcus faecium, ATCC35667, read-out: MIC
How it was run: as §7

[5] = test system: S. aureus 76 (Meth^R)(lac^+); assay: In vitro antibacterial evaluation, MIC by agar dilution, S. aureus 76; type: cell-based; conditions: Staphylococcus aureus, read-out: MIC
How it was run: as §7

[6] = test system: P. aeruginosa ATCC 27853; assay: In vitro antibacterial evaluation, MIC by agar dilution, P. aeruginosa ATCC 27853; type: cell-based; conditions: Pseudomonas aeruginosa, ATCC27853, read-out: MIC
How it was run: as §7

[7] = test system: S. epidermidis ATCC 31432; assay: In vitro antibacterial evaluation, MIC by agar dilution, S. epidermidis ATCC 31432; type: cell-based; conditions: Staphylococcus epidermidis, ATCC31432; S. epidermidis ATCC 31432; read-out: MIC
How it was run: as §7

[8] = test system: S. aureus ATCC 25923; assay: In vitro antibacterial evaluation, MIC by agar dilution, S. aureus ATCC 25923; type: cell-based; conditions: Staphylococcus aureus, ATCC25923; S. aureus ATCC 25923; read-out: MIC
How it was run: as §7

[9] = test system: S. aureus Col (Meth^R)(lac^-); assay: In vitro antibacterial evaluation, MIC by agar dilution, S. aureus Col; type: cell-based; conditions: S. aureus Col
Method: as §1, §2, §3, §4, §5, §6
The novel agents of this invention are notable for their enhanced activity against S. aureus Col and Enterococci (E. faecium and E. faecalis). […]

[10] = test system: S. haemolyticus (Meth^R); assay: In vitro antibacterial evaluation, MIC by agar dilution, S. haemolyticus; type: cell-based; conditions: Staphylococcus haemolyticus, read-out: MIC
How it was run: as §7

[11] = test system: E. faecalis ATCC 29212; assay: In vitro antibacterial evaluation, MIC by agar dilution, E. faecalis ATCC 29212; type: cell-based; conditions: Enterococcus faecalis, ATCC29212; E. faecalis ATCC 29212; read-out: MIC
How it was run: as §7

[12] = test system: S. aureus ATCC 29213; assay: In vitro antibacterial evaluation, MIC by agar dilution, S. aureus ATCC 29213; type: cell-based; conditions: Staphylococcus aureus, ATCC29213
How it was run: as §7

[13] = test system: Enterococci (E. faecium and E. faecalis); assay: In vitro antibacterial evaluation, Enterococci (E. faecium and E. faecalis); type: cell-based
Method: as §1, §2
Aliquots of antimicrobial agents were prepared in phosphate buffered saline (PBS) at pH 7.2. Tween 20 or DMSO was used as a solubilizing vehicle as needed. Standard methods of vortexing, sonicating and gentle heat were used to facilitate solubilizing the test agent. […]
Disposable sterile 1 μL loops were used to inoculate test plates, with each isolate in a designated grid on the agar plate. […] Endpoints were assessed as the minimum inhibitory concentration (MIC) of antimicrobial agent. […]

[14] = test system: MRSA strains; conditions: background art; cited from earlier work

O=C(Cc1ccccc1)N[C@@H]1C(=O)N2C(C(=O)O)=C(Sc3ccccc3-c3ccccc3)CS[C@H]12 [Cmpd 9, (7R)-7-((Phenylacetyl)amino]-3-(2-biphenylthio)-3-cephem-4-carboxylic acid]
MIC [1]: > 32 µg/mL | MIC [2]: 0.25 µg/mL (≈ 0.497 µM) | MIC [3]: > 32 µg/mL | MIC [4]: 2 µg/mL (≈ 3.98 µM) | MIC [5]: 8 µg/mL (≈ 15.9 µM) | MIC [6]: > 32 µg/mL | MIC [7]: 0.125 µg/mL (≈ 0.249 µM) | MIC [8]: 0.125 µg/mL (≈ 0.249 µM) | activity against S. aureus Col, S. aureus Col 8A and Enterococci ([9]; S. aureus Col 8A, Enterococci): broad activity against both S. aureus Col and S. aureus Col 8A, as well as Enterococci | MIC [10]: 0.125 µg/mL (≈ 0.249 µM) | MIC [11]: 4 µg/mL (≈ 7.96 µM) | MIC [12]: 0.25 µg/mL (≈ 0.497 µM)

O=C(Cc1ccccc1)N[C@@H]1C(=O)N2C(C(=O)O)=C(SCc3ccc(-c4ccccc4)cc3)CS[C@H]12 [Cmpd 12, (7R)-7-[(Phenylacetyl)amino]-3-(4-biphenylmethylthio)-3-cephem-4-carboxylic acid]
MIC [1]: > 32 µg/mL | MIC [2]: < 0.06 µg/mL | MIC [3]: > 32 µg/mL | MIC [6]: > 32 µg/mL | MIC [7]: < 0.06 µg/mL | activity against enterococci [13]: potent activity against enterococci | MIC [8]: < 0.06 µg/mL | activity against S. aureus Col [9]: lacking activity against S. aureus Col | MIC [11]: 4 µg/mL (≈ 7.74 µM) | MIC ([12]; S. aureus ATCC 29213, read-out: MIC): < 0.06 µg/mL

C[C@@H](O)[C@H]1C(=O)N2C(C(=O)O)=C(SCCN=CN)C[C@H]12 [imipenem]
activity against MRSA strains [14]: active against a few MRSA strains

— patent US5607926A, “Cephalosporin antibiotics” (Microcide Pharmaceuticals, Inc., priority 1995, dated 1997)
